Test results: US5591758A, “Organic nitrates, processes for their preparation and their use in the treatment of cardiovascular diseases” (Laboratoires Hoechst, SA, priority 1991, dated 1997)
Several values for one entry are separate records, joined by “and”; a condition that tells them apart may be missing. Equal entries are not always repeated. Structures can show the parent of a compound that is named as a salt.

Key:
[1] = test system: unanaesthetised hypertensive dogs; assay: Haemodynamic effects in unanaesthetised hypertensive dogs; format: in vivo; design: Δdp/dt / Δdp/dt average: unit not given beside the values; ΔBPs / ΔBPd / ΔLVEDP / ΔBPs average / ΔBPd average / ΔLVEDP average / ΔHR average: unit not given here; settings: for ΔBPd average / ΔBPs average / ΔHR average / ΔLVEDP average / Δdp/dt average: n = 3, 3 mg/kg p.o.; for ΔBPd / ΔBPs / ΔHR / ΔLVEDP / Δdp/dt: single dog
Experimental: Haemodynamic effects of the compounds according to the invention in unanaesthetised hypertensive dogs (n=3).
Table VI below and FIG. 1 show more particularly the change in the effect of compound (46) on the various haemodynamic parameters as a function of time, the compound being administered p.o. in a dosage of 3 mg/kg.

anesthetised pigs = assay: Haemodynamic effects on anesthetised pigs; format: in vivo, pigs ("German land" race)
Experimental: Haemodynamic effects of the compounds according to the invention on anesthetised pigs or dogs
Pigs are of "German land" race (20-26 kg) and are used after fasting overnight.
In the case of pigs, sedation, analgesia and anesthesia are induced by ketamine HCl (20 mg/kg i.m.), methonidate HCl (10 mg/kg i.m.), xylacine HCl (3 mg/kg i.m.) and sodium pentobarbitol (25-30 mg/kg as bolus i.v. or 0.16 mg/kg/min as i.v. perfusion).
The pigs or dogs are placed under artificial respiration in ambient air. Analysis of the blood gases (pO2, pCO2) is carried out at regular intervals and oxygen can be supplied via the respirator, if necessary.
The haemodynamic parameters recorded include the left ventricular pressure (LVP; Millar PC350 Tip catheter inserted via the carotid artery), systemic blood pressure (BPs, BPd; full catheter in a femoral artery), the end pressure of the left ventricular diastole (LVEDP), the ventricular contractility (LVPdp/dtmax) and the heart rate (HR).
The haemodynamic variables are recorded continuously for 1 to 3 hours, as a function of the period of action of the compound.
The effects of the compounds studied are shown as the absolute difference with respect to the base value (bv) measured before administration of the compounds and are shown in Table VII (a,b,c).
An antianginal activity is estimated by a fall in the BPs and the LVEDP (fall in venous return).

[2] = 3 mg/kg p.o., 10 min, monohydrochloride, 3 mg/kg
[3] = 3 mg/kg p.o., 20 min, monohydrochloride, 3 mg/kg
[4] = 3 mg/kg p.o., 30 min, monohydrochloride, 3 mg/kg
[5] = 3 mg/kg p.o., 60 min, monohydrochloride, 3 mg/kg
[6] = 3 mg/kg p.o., 90 min, monohydrochloride, 3 mg/kg
[7] = 3 mg/kg p.o., 120 min, monohydrochloride, 3 mg/kg
[8] = 3 mg/kg p.o., 180 min, monohydrochloride, 3 mg/kg
[9] = 3 mg/kg p.o., 240 min, monohydrochloride, 3 mg/kg
[10] = 3 mg/kg p.o., 300 min, monohydrochloride, 3 mg/kg
[11] = 3 mg/kg p.o., 360 min, monohydrochloride, 3 mg/kg

SMILES: O=C(CNC(=O)[C@@H]1CSCN1)N[C@H]1CO[C@H]2[C@@H]1OC[C@@H]2O[N+](=O)[O-] [Compound 46, 5-[[2-[[(4-L-Thiazolidinyl)carbonyl]amino]-1oxoethyl]amino]-5-deoxy-2-O-nitro-1,4:3,6-dianhydro-L-iditol monohydrochloride]
- lowering of left ventricular end-diastolic pressure (LVEDP) ([1]; 3 mg/kg p.o.): significant, pronounced and prolonged
- lowering of systolic blood pressure (BPs) ([1]; 3 mg/kg p.o.): significant, pronounced and prolonged
- ΔBPd average ([1]; 10 min): -3
- ΔBPs average ([1]; 10 min): -5
- ΔHR average ([1]; 10 min): 3
- ΔLVEDP average ([1]; 10 min): -1
- Δdp/dt average ([1]; 10 min): -167
- ΔBPd average ([1]; 20 min): 0
- ΔBPs average ([1]; 20 min): -2
- ΔHR average ([1]; 20 min): 17
- ΔLVEDP average ([1]; 20 min): -2
- Δdp/dt average ([1]; 20 min): 33
- ΔBPd average ([1]; 30 min): 2
- ΔBPs average ([1]; 30 min): -2
- ΔHR average ([1]; 30 min): 7
- ΔLVEDP average ([1]; 30 min): -1
- Δdp/dt average ([1]; 30 min): 100
- ΔBPd average ([1]; 60 min): 0
- ΔBPs average ([1]; 60 min): -22
- ΔHR average ([1]; 60 min): -7
- ΔLVEDP average ([1]; 60 min): -4
- Δdp/dt average ([1]; 60 min): 33
- ΔBPd average ([1]; 90 min): 3
- ΔBPs average ([1]; 90 min): -28
- ΔHR average ([1]; 90 min): 23
- ΔLVEDP average ([1]; 90 min): -5
- Δdp/dt average ([1]; 90 min): -33
- ΔBPd average ([1]; 120 min): 5
- ΔBPs average ([1]; 120 min): -28
- ΔHR average ([1]; 120 min): 33
- ΔLVEDP average ([1]; 120 min): -6
- Δdp/dt average ([1]; 120 min): 0
- ΔBPd average ([1]; 180 min): 8
- ΔBPs average ([1]; 180 min): -25
- ΔHR average ([1]; 180 min): 32
- ΔLVEDP average ([1]; 180 min): -5
- Δdp/dt average ([1]; 180 min): 0
- ΔBPd average ([1]; 240 min): 8
- ΔBPs average ([1]; 240 min): -30
- ΔHR average ([1]; 240 min): 27
- ΔLVEDP average ([1]; 240 min): -5
- Δdp/dt average ([1]; 240 min): -133
- ΔBPd average ([1]; 300 min): 8
- ΔBPs average ([1]; 300 min): -27
- ΔHR average ([1]; 300 min): 27
- ΔLVEDP average ([1]; 300 min): -2
- Δdp/dt average ([1]; 300 min): 33
- ΔBPd average ([1]; 360 min): 8
- ΔBPs average ([1]; 360 min): -23
- ΔHR average ([1]; 360 min): 13
- ΔLVEDP average ([1]; 360 min): -4
- Δdp/dt average ([1]; 360 min): -133
- ΔBPd [1, 2]: -5 and 0
- ΔBPs [1, 2]: -5 and 0 and -10
- ΔHR [1, 2]: 0 and 10
- ΔLVEDP [1, 2]: -1 and 0 and -2
- Δdp/dt [1, 2]: -100 and 0 and -400
- ΔBPd ([1]; 3 mg/kg p.o., 20 min): 0
- ΔBPs [1, 3]: 0 and -5
- ΔHR [1, 3]: 35 and 0 and 15
- ΔLVEDP [1, 3]: -3 and 0 and -2
- Δdp/dt [1, 3]: 300 and 0 and -200
- ΔBPd [1, 4]: 5 and 0
- ΔBPs [1, 4]: 0 and -5
- ΔHR [1, 4]: 0 and 10
- ΔLVEDP [1, 4]: 0 and -3
- Δdp/dt [1, 4]: 0 and 500 and -200
- ΔBPd [1, 5]: 5 and 0 and -5
- ΔBPs [1, 5]: -25 and -15
- ΔHR [1, 5]: 10 and -10 and -20
- ΔLVEDP [1, 5]: -7 and -3
- Δdp/dt [1, 5]: 0 and 500 and -400
- ΔBPd [1, 6]: 5 and 10 and -5
- ΔBPs [1, 6]: -30 and -25
- ΔHR [1, 6]: 35 and 45 and -10
- ΔLVEDP [1, 6]: -7 and -6 and -3
- Δdp/dt [1, 6]: -200 and 500 and -400
- ΔBPd [1, 7]: 5 and 10 and 0
- ΔBPs [1, 7]: -30 and -25
- ΔHR [1, 7]: 55 and 63 and -20
- ΔLVEDP [1, 7]: -9 and -7 and -2
- Δdp/dt [1, 7]: -400 and 800
- ΔBPd [1, 8]: 10 and 15 and 0
- ΔBPs [1, 8]: -15 and -25 and -35
- ΔHR [1, 8]: 35 and 40 and 20
- ΔLVEDP [1, 8]: -7 and -4
- Δdp/dt [1, 8]: -300 and 500 and -200
- ΔBPd [1, 9]: 10 and 15 and 0
- ΔBPs [1, 9]: -15 and -35 and -40
- ΔHR [1, 9]: 40 and 20
- ΔLVEDP [1, 9]: -7 and -5 and -4
- Δdp/dt [1, 9]: -500 and 500 and -400
- ΔBPd [1, 10]: 10 and 15 and 0
- ΔBPs [1, 10]: -15 and -45 and -40
- ΔHR [1, 10]: 45 and 40 and -5
- ΔLVEDP [1, 10]: -4 and 0 and -3
- Δdp/dt [1, 10]: -300 and 800 and -400
- ΔBPd [1, 11]: 10 and 15 and 0
- ΔBPs [1, 11]: -10 and -25 and -35
- ΔHR [1, 11]: 15 and 10
- ΔLVEDP [1, 11]: -5 and -3 and -4
- Δdp/dt [1, 11]: -500 and 500 and -400
- BPs (min), period of action (anesthetised pigs; pigs, 3,0 mg/kg i.d.): > 120 min
- BPs, difference to base value (anesthetised pigs; pigs, 3,0 mg/kg i.d.): -30 mmHg
- LVRDP (min), period of action (anesthetised pigs; pigs, 3,0 mg/kg i.d.): > 120 min
- LVRDP, difference to base value (anesthetised pigs; pigs, 3,0 mg/kg i.d.): -5,0 mmHg

SMILES: O=[N+]([O-])O[C@@H]1CO[C@H]2[C@@H]1OC[C@@H]2O [IS-5-MN, isosorbide 5-mononitrate, reference compound]
- BPs, difference to base value (anesthetised pigs; pigs, 1,0 mg/kg i.d.): 0 mmHg
- LVRDP, difference to base value (anesthetised pigs; pigs, 1,0 mg/kg i.d.): 0 mmHg
- BPs (min), period of action (anesthetised pigs; pigs, 3,0 mg/kg i.d.): 60 min
- BPs, difference to base value (anesthetised pigs; pigs, 3,0 mg/kg i.d.): -5 mmHg
- LVRDP (min), period of action (anesthetised pigs; pigs, 3,0 mg/kg i.d.): 60 min
- LVRDP, difference to base value (anesthetised pigs; pigs, 3,0 mg/kg i.d.): -3 mmHg
- BPs (min), period of action (anesthetised pigs; pigs, 10,0 mg/kg i.d.): > 120 min
- BPs, difference to base value (anesthetised pigs; pigs, 10,0 mg/kg i.d.): -26 mmHg
- LVRDP (min), period of action (anesthetised pigs; pigs, 10,0 mg/kg i.d.): > 120 min
- LVRDP, difference to base value (anesthetised pigs; pigs, 10,0 mg/kg i.d.): -3,0 mmHg
